# Columns and labels:
# HT-1080 xenograft tumors = test: HT-1080 cell line-derived xenograft model; assay type: in vivo, athymic nude mice
# Experimental: (§1) Fresh tumor tissues were fixed in 10% neutral buffered formalin overnight, washed once with PBS, and stored in 70% ethanol at 4° C. The tissues were dehydrated and embedded in paraffin by the Research Histology Core Laboratory (MD Anderson Cancer Center) according to standard protocols. Embedded tissues were sectioned at a thickness of 5 μm for H&E or immunohistochemistry (IHC) analysis. IHC analysis was performed as previously described (Gan, B., et al., Cancer Cell 18, 472-484 (2010); Gan, B., et al., J Cell Biol 175, 121-133 (2006)). Briefly, the primary antibodies, including ki-67 (1:500, 9027s, Cell Signaling Technology), cleaved-caspase 3 (1:500, 9661s, Cell Signaling Technology), or 4-HNE (1:400, ab46545, Abcam) were incubated overnight at 4° C. Staining was performed using the Vectastain elite ABC kit and DAB peroxidase substrate kit (Vector laboratories). Images were randomly taken from the […] (five images per tumor) at ×200 magnification using an Olympus BX43 microscope. All the xenograft experiments were performed in accordance with a protocol approved by the Institutional Animal Care and Use Committee and Institutional Review Board at The University of Texas MD Anderson Cancer Center. The study is compliant with all relevant ethical regulations regarding animal research. Female 4- to 6-week-old athymic nude mice (Foxn1^nu/Foxn1^nu) were purchased from the Experimental Radiation Oncology Breeding Core Facility at MD Anderson Cancer Center and housed in the Animal Care Facility at the Department of Veterinary Medicine and Surgery at MD Anderson. Cancer cell lines were suspended and counted in cold phosphate-buffered saline (PBS), and 5×10^6 HT-1080 or 1×10^7 NCI-H226 cells were injected into mice subcutaneously. When the tumor reached 50-100 mm^3, the mice were assigned randomly into different treatment groups. Brequinar or sulfasalazine was dissolved in dimethyl sulfoxide (DMSO) and diluted in PBS. Brequinar was intraperitoneally injected into mice at a dose of 30 mg/kg every three days. Sulfasalazine was intraperitoneally injected daily at a dose of 100 mg/kg. Liproxstatin-1 diluted in PBS was intraperitoneally injected daily at a dose of 10 mg/kg. The daily injection of brequinar, sulfasalazine, or liproxstatin-1 was continued until the endpoint as indicated in the corresponding figures. The tumor volume was measured every 3 days until the endpoint and calculated according to the equation volume=length×width^2×½.
# DHODH = DHODH (Homo sapiens, UniProt Q02127); conditions: cited from earlier work
# [1] = system: GPX4^low NCI-H226 xenografts; test: NCI-H226 xenograft model; assay type: in vivo, athymic nude mice; conditions: brequinar 30 mg/kg intraperitoneally every three days
# Experimental: All the xenograft experiments were performed in accordance with a protocol approved by the Institutional Animal Care and Use Committee and Institutional Review Board at The University of Texas MD Anderson Cancer Center. The study is compliant with all relevant ethical regulations regarding animal research. Female 4- to 6-week-old athymic nude mice (Foxn1^nu/Foxn1^nu) were purchased from the Experimental Radiation Oncology Breeding Core Facility at MD Anderson Cancer Center and housed in the Animal Care Facility at the Department of Veterinary Medicine and Surgery at MD Anderson. Cancer cell lines were suspended and counted in cold phosphate-buffered saline (PBS), and 5×10^6 HT-1080 or 1×10^7 NCI-H226 cells were injected into mice subcutaneously. When the tumor reached 50-100 mm^3, the mice were assigned randomly into different treatment groups. Brequinar or sulfasalazine was dissolved in dimethyl sulfoxide (DMSO) and diluted in PBS. Brequinar was intraperitoneally injected into mice at a dose of 30 mg/kg every three days. Sulfasalazine was intraperitoneally injected daily at a dose of 100 mg/kg. Liproxstatin-1 diluted in PBS was intraperitoneally injected daily at a dose of 10 mg/kg. […] The tumor volume was measured every 3 days until the endpoint and calculated according to the equation volume=length×width^2×½.
# [2] = system: GPX4^low patient-derived xenografts (PDXs); test: GPX4^low patient-derived xenograft model; assay type: in vivo, NSG mice; conditions: brequinar 30 mg/kg intraperitoneally every three days
# From the text: PDXs were generated in accordance with protocols approved by the Institutional Review Board at The University of Texas MD Anderson Cancer Center. Informed consent was obtained from the patients and the study is compliant with all relevant ethical regulations regarding research involving human participants. All the NOD scid gamma (NSG) mice were purchased from the Experimental Radiation Oncology Breeding Core Facility at MD Anderson Cancer Center and housed in the Animal Care Facility at the Department of Veterinary Medicine and Surgery at MD Anderson Cancer Center. PDX model used in this study was originally obtained from lung cancer PDX platform at MD Anderson Cancer Center. PDX experiments were performed as previously described (Liu, X., et al., Nat Cell Biol 22, 476-486 (2020)). Briefly, PDX tumors in cold DMEM media were minced into fragments 1-2 mm^3 in volume. Then each PDX tumor fragment was subcutaneously inoculated into the dorsal flank of NSG mice. When the tumors reached 50-100 mm 3 in volume, the mice were assigned randomly into different treatment groups for the treatment of brequinar, sulfasalazine, and/or liproxstatin-1 as described under cell line-derived xenograft model. The tumor volume was measured every 3 days until the endpoint and calculated according to the equation volume=length×width^2×½.
# solid tumors = conditions: oncology clinical trials; cited from earlier work
# GPX4-knockdown tumors = test: GPX4-knockdown HT-1080 xenograft model; assay type: in vivo, athymic nude mice
# Experimental: as §1
# GPX4^high HT-1080 cells = test: Cell viability / cell death (ferroptosis) in HT-1080 cells; assay type: cell-based, human; conditions: wild-type (WT) cells, BQR 500 μM, 4 hours
# Experimental: Briefly, cells were seeded onto 96-well plates at a density of 2×10^4 per well. The next day, cells were treated with GPX4 or DHODH inhibitors for 4 hours. Subsequently, cells exposed to 10 μl CCK-8 reagent (100 μl medium per well) for 1 hour at 37° C., 5% CO2 in an incubator. The absorbance at a wavelength of 450 nm was determined using a FLUOstar Omega microplate reader (BMG Labtech).
# For propidium iodide-staining, cells were seeded at a density of 50% confluence into 12-well plates. The next day, cells were treated with different reagents. To measure cell death, the cells were collected (including floating dead cells), stained with 5 μg/ml propidium iodide and the percentage of the propidium iodide-positive dead cell population was analyzed using the flow cytometer BD Accuri C6 (BD Biosciences) and an FL2 detector. A minimum of 10,000 single cells were analyzed per well and all experiments were carried out at least in triplicate.
# [3] = brequinar 30 mg/kg intraperitoneally every three days
# Chain of DHODH (Q02127 whole entry, species assumed): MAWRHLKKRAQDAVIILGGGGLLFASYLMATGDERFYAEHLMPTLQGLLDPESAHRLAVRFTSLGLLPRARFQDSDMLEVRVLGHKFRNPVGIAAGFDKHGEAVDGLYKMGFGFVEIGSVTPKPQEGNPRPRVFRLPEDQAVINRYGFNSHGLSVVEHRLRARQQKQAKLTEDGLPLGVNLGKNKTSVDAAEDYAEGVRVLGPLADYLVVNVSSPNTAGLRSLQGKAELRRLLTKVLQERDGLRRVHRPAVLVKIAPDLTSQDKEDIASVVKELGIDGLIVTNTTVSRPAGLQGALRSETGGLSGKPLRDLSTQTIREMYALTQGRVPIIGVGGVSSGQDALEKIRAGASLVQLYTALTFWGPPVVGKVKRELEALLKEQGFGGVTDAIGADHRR
smiles,measurement,setting,value
Cc1c(-c2ccc(-c3ccccc3F)cc2)nc2ccc(F)cc2c1C(=O)O [brequinar],tumor growth,HT-1080 xenograft tumors; [3],did not affect the growth
same,4-HNE staining (lipid peroxidation marker),HT-1080 xenograft tumors; control tumors,but not in control tumors
same,cleaved caspase-3 or Ki67 staining,HT-1080 xenograft tumors; control xenograft samples,did not affect
same,DHODH inhibitor potency and specificity,DHODH,potent and specific
same,tumor growth,[1],significantly suppressed
same,tumor growth,[2],significantly suppressed
same,efficacy against solid tumors,solid tumors,lacks broad efficacy against solid tumors
same,tolerability in patients,solid tumors,well-tolerated
same,4-HNE staining (lipid peroxidation marker),GPX4-knockdown tumors; GPX4-knockdown tumors,dramatically increased
same,cleaved caspase-3 or Ki67 staining,GPX4-knockdown tumors; GPX4-knockdown xenograft samples,did not affect
same,tumor growth (sensitivity to DHODH inhibition),GPX4-knockdown tumors; [3],significantly sensitized
same,effect on RSL3-induced ferroptosis,GPX4^high HT-1080 cells,promotes RSL3-induced ferroptosis

# Reference: patent publication US20240148757A1, “USE OF DIHYDROOROTATE DEHYDROGENASE (DHODH) INHIBITORS TO TARGET FERROPTOSIS IN CANCER THERAPY” (BOARD OF REGENTS, THE UNIVERSITY OF TEXAS SYSTEM, priority 2021, published 2024)
